These results are taken from patent US20240261425A1, “CONJUGATE AND THE PREPARING METHOD AND USE THEREOF” (Nanjing University, priority 2021, published 2024).

The subject of one series is sfGFP-TEV. In words: Modification of sfGFP-TEV by derivatives of the reagent 1. Particulars: 2 h. On the procedure: When the benzene ring of the Reagent 1 was modified with different substituents (Michael acceptor 1-1 to 1-4), the difference of different substituents on the addition reaction (for example, the addition activity) was investigated (Table 5). Michael acceptor 1-1 to 1-4 were reacted with sfGFP-TEV.
MA 2 or MA 2 analogues (i.e. Compounds 1a, 1a-1, 1b, 1b-1) (1 μL, 20 mM in DMSO) and PBS (15 μL, pH=7.4, 50 mM) were added to a solution of GFP-TEV (4 μL, 250 μM in HEPES buffer). After incubation at 37° C. for 2 h, the solution was desalted to give the product before LC-MS analysis.

Series [1] can be described thus: Stability of linker-modified sfGFP in buffer comprising GSH (thiol exchange, mass spectrometry). In kind it is physicochemical. Particulars: 37° C., different times. On the procedure:
GSH (0.8 μL, 100 mM) and PBS (20 μL, pH=8.0, 50 mM) were added to a solution of GFP-Linker (20 μL, 40 μM, in PBS) at 37° C. for 48 h. (FIG. 20)
The stability of a sfGFP modified PhESF as a linker was verified, using the linker 5 and 4 with higher reactivity as controls. After sfGFP had been modified, it was added to the buffer comprising GSH, and was placed at 37° C. for different time, and a mass spectrometry was performed.

Molecules are shown by their SMILES.

Take `O=S(=O)(F)/C=C/c1ccccc1` [Michael acceptor 1]: in the series with sfGFP-TEV, the Addition number is 2 and the “Conv. (%)” value was >99%. For the same compound, the thiol exchange result in series [1] is “did not have a thiol exchange”.

In the case of `CN1C(=O)C=CC1=O` [linker 5, reference compound], the thiol exchange entry in series [1] is reported as “obviously undergo thiol exchange”.
